The values that follow come from US20140249135A1, “PIM KINASE INHIBITORS AND METHODS OF THEIR USE” (NOVARTIS AG, priority 2007, published 2014).

The subject of one test is HEL 92.1.7 cells. Description: Cell proliferation assay (CellTiter-Glo), HEL 92.1.7. The class given is cell-based. Conditions: Homo sapiens, read-out: EC50 (μM) HEL 92.1.7. On the procedure: HEL 92.1.7 cells (ATTC No. TIB-180, an erythroleukemia line derived from malignant peripheral blood), MV4-11 cells (ATCC No. CRL-9591, a human acute monocytic leukemia line) and PC3 cells (ATCC No. CRL-1435, a human prostatic adenocarcinoma line) were cultured in RPMI1640 supplemented with 10% FBS, sodium pyruvate and antibiotics. Cells were plated in the same medium at a density of 1000 cells per well into 96 well tissue culture plates, with outside wells vacant, on the day of assay.
Test compounds supplied in DMSO were diluted into DMSO at 500 times the desired final concentrations before dilution into culture media to 2 times final concentrations. Equal volumes of 2× compounds were added to the cells in 96 well plates and incubated at 37° C. for 3 days.
After 3 days plates were equilibrated to room temperature and equal volume of CellTiter-Glow Reagent (Promega) was added to the culture wells. The plates were agitated briefly and luminescent signal was measured with luminometer. The percent inhibition of the signal seen in cells treated with DMSO alone vs. cells treated with control compound was calculated and used to determine EC50 values (i.e., the concentration of a test compound that is required to obtain 50% of the maximum effect in the cells) for tested compounds, as shown in Example 763.

The target in another test is Pim3 kinase (Homo sapiens, UniProt Q86V86). Description: Pim3 ATP depletion assay. The class given is biochemical. The following applies: read-out: IC50 (μM) PIM3.
In another test the target is Pim2 kinase (Homo sapiens, UniProt Q9P1W9). The test can be described thus: Pim2 ATP depletion assay.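 Note: Luciferase-based luminescent readout of ATP remaining after PIM2 phosphorylates a BAD peptide, final 5 nM enzyme, 4 µM ATP, 10 µM peptide, 2.5% DMSO, run to roughly half ATP consumption.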 The class given is biochemical. Conditions: read-out: IC50 (μM) PIM2.
Test [1] addresses T1, human full length PKCE enzyme (Homo sapiens, UniProt Q02156).
T1 construct: human full length PKCE enzyme purchased from InVitrogen; purchased InVitrogen
T1 sequence (Q02156 1-737): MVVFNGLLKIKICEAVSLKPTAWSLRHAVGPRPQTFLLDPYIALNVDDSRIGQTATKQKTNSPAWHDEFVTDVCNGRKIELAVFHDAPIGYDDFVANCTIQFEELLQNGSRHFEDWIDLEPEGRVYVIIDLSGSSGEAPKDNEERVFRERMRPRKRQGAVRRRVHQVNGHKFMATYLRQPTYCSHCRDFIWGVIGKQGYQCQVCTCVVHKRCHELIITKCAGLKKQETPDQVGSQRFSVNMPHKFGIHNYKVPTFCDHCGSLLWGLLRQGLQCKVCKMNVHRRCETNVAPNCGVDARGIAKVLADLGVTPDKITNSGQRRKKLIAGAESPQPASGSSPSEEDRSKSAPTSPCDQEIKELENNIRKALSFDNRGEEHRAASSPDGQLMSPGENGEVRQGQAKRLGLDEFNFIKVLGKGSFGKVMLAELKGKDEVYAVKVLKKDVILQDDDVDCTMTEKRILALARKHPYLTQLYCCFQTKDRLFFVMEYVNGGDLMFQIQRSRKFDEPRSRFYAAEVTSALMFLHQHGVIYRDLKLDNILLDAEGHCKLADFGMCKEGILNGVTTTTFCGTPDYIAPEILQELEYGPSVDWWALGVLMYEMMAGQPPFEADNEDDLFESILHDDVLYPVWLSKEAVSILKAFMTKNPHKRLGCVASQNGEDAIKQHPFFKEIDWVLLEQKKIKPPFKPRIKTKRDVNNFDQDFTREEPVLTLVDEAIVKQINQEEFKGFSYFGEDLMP
Description: In vitro PKCE assay. The following applies: 10 nM enzyme, 40 uM peptide substrate, 20 uM ATP, KinaseGlo Plus readout; read-out: PKCε IC50. The class given is biochemical. (In Kinase-Glo more light means more ATP remaining.)

The next test concerns the target Pim1 kinase (Homo sapiens, UniProt P11309). The test can be described thus: Pim1 ATP depletion assay.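 Note: Luciferase-luciferin luminescence readout of residual ATP after PIM1 transfers phosphate to a peptide substrate, 40 µM ATP added, reaction run to roughly half ATP consumption.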 The class given is biochemical. Conditions: Pim1 ATP depletion assay; read-out: IC50 (μM) PIM1.

Molecules are shown by their SMILES.

Sequence of Pim1 kinase (P11309 whole entry): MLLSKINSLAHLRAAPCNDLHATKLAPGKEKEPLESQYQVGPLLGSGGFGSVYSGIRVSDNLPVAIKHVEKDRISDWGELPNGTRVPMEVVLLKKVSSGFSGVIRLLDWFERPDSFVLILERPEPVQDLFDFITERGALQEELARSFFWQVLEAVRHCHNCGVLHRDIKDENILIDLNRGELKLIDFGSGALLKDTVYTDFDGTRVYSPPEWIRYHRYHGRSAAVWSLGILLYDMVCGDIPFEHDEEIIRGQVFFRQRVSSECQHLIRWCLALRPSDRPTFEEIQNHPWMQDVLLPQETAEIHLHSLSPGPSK
Sequence of Pim2 kinase (Q9P1W9 whole entry): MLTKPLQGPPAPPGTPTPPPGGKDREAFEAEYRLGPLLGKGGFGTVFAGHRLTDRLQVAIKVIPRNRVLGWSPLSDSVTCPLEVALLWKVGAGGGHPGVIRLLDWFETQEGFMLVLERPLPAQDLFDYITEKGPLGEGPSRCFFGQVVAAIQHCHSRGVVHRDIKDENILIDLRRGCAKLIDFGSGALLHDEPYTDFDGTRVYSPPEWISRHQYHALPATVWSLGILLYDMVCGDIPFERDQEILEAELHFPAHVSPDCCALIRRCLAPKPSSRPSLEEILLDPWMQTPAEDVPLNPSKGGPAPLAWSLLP

The term EC50 denotes the concentration giving half of the maximal effect. In general, IC50 refers to the concentration that gives 50% inhibition. As for `Nc1ncc(Br)nc1C(=O)Nc1[nH]c(=O)ncc1N1CCCC(F)C1` (stereo not shown) [Example 155, 3-amino-6-bromo-N-[5-(3-fluoropiperidin-1-yl)-2-oxo-2,3-dihydropyrimidin-4-yl]pyrazine-2-carboxamide], the EC50 in the test on HEL 92.1.7 cells lay within 5 to 10 µM. The IC50 at Pim3 kinase was below 1 µM; on Pim2 kinase, below 1 µM; in test [1], 1000 to 10000 nM; at Pim1 kinase, below 1 µM.
Take `Nc1ncc(Br)nc1C(=O)Nc1[nH]c(=O)ncc1N1CCC(F)(F)CC1` [Example 157, 3-amino-6-bromo-N-[5-(4,4-difluoropiperidin-1-yl)-2-oxo-2,3-dihydropyrimidin-4-yl]-pyrazine-2-carboxamide]: the EC50 in the test with HEL 92.1.7 cells is above 10 µM. The IC50 was below 1 µM on Pim3 kinase, below 1 µM at Pim2 kinase, above 25000 nM in test [1] and below 1 µM at Pim1 kinase.
For the compound `Nc1nc(N)c(C(=O)Nc2[nH]c(=O)ncc2N2CCCC(F)C2)nc1Cl` (stereo not shown) [Example 160, 3,5-diamino-6-chloro-N-[5-(3-fluoropiperidin-1-yl)-2-oxo-2,3-dihydropyrimidin-4-yl]pyrazine-2-carboxamide], the EC50 with HEL 92.1.7 cells is above 10 µM. The IC50 was below 1 µM on Pim3 kinase, below 1 µM on Pim2 kinase, above 25000 nM in test [1] and below 1 µM on Pim1 kinase.
`NCC(=O)N1CCN(c2ccncc2NC(=O)c2nc(Br)cnc2N)CC1` [Example 179, 3-amino-N-{4-[4-(aminoacetyl)-piperazin-1-yl]pyridin-3-yl}-6-bromopyrazine-2-carboxamide]: in the test with HEL 92.1.7 cells, the EC50 is 1 to 5 µM. Moreover, the IC50 was below 1 µM on Pim3 kinase, below 1 µM on Pim2 kinase, below 1000 nM in test [1] and below 1 µM at Pim1 kinase.
For `NCC1CCCN(c2ccncc2NC(=O)c2nc(Br)cnc2N)C1` (stereo not shown) [Example 180, 3-amino-N-{4-[3-(amino-methyl)piperidin-1-yl]pyridin-3-yl}-6-bromopyrazine-2-carboxamide], the EC50 in the test with HEL 92.1.7 cells is below 1 µM. In addition, the IC50 at Pim3 kinase was below 1 µM; on Pim2 kinase, below 1 µM; in test [1] it was below 1000 nM; on Pim1 kinase it was below 1 µM.
Regarding `Nc1ncc(Br)nc1C(=O)Nc1[nH]c(=O)ncc1N1CCCC(N)C1` (stereo not shown) [Example 239, 3-amino-N-[5-(3-aminopiperidin-1-yl)-2-oxo-2,3-dihydro-pyrimidin-4-yl]-6-bromo-pyrazine-2-carboxamide], the EC50 with HEL 92.1.7 cells is above 10 µM. In addition, the IC50 on Pim3 kinase is below 1 µM; on Pim2 kinase, below 1 µM; in test [1], below 1000 nM; on Pim1 kinase it was below 1 µM.
Regarding `Nc1ncc(-c2ccccc2Cl)nc1C(=O)Nc1cnccc1N1CCCC(N)C1` (stereo not shown) [Example 346, 3-amino-6-(2-chloro-phenyl)-pyrazine-2-carboxylic acid (3-amino-3,4,5,6-tetrahydro-2H-[1,4′]bipyridinyl-3′-yl)-amide], the EC50 in the test with HEL 92.1.7 cells is below 1 µM. For the same compound, the IC50 on Pim3 kinase was below 1 µM; on Pim2 kinase it was below 1 µM; in test [1], below 1000 nM; at Pim1 kinase, below 1 µM.
For the compound `Nc1ncc(-c2ccccc2OC(F)(F)F)nc1C(=O)Nc1cnccc1N1CCCC(N)C1` (stereo not shown) [Example 347, 3-amino-6-(2-trifluoro-methoxy-phenyl)-pyrazine-2-carboxylic acid (3-amino-3,4,5,6-tetrahydro-2H-[1,4′]bi-pyridinyl-3′-yl)-amide], the EC50 in the test with HEL 92.1.7 cells was below 1 µM. Moreover, the IC50 on Pim3 kinase was below 1 µM; on Pim2 kinase it was below 1 µM; in test [1], below 1000 nM; at Pim1 kinase, below 1 µM.
On to `COc1ccccc1-c1cnc(N)c(C(=O)Nc2cnccc2N2CCCC(N)C2)n1` (stereo not shown) [Example 349, 3-amino-6-(2-methoxy-phenyl)-pyrazine-2-carboxylic acid (3-amino-3,4,5,6-tetra-hydro-2H-[1,4′]bipyridinyl-3′-yl)-amide], for which, in the test with HEL 92.1.7 cells, the EC50 is below 1 µM. Also, the IC50 was below 1 µM at Pim3 kinase, below 1 µM on Pim2 kinase, 1000 to 10000 nM in test [1] and below 1 µM on Pim1 kinase.
For the compound `Nc1ncc(-c2ccccc2F)nc1C(=O)Nc1cnccc1N1CCCC(N)C1` (stereo not shown) [Example 350, 3-amino-6-(2-fluoro-phenyl)-pyrazine-2-carboxylic acid (3-amino-3,4,5,6-tetrahydro-2H-[1,4′]bipyridinyl-3′-yl)-amide], in the test on HEL 92.1.7 cells, the EC50 was below 1 µM. For the same compound, the IC50 was below 1 µM at Pim3 kinase, below 1 µM at Pim2 kinase, below 1000 nM in test [1] and below 1 µM at Pim1 kinase.
For `Nc1ncc(-c2cccc(Cl)c2)nc1C(=O)Nc1cnccc1N1CCCC(N)C1` (stereo not shown) [Example 352, 3-amino-6-(3-chloro-phenyl)-pyrazine-2-carboxylic acid (3-amino-3,4,5,6-tetrahydro-2H-[1,4′]bipyridinyl-3′-yl)-amide], in the test on HEL 92.1.7 cells, the EC50 was below 1 µM. Besides, the IC50 is below 1 µM at Pim3 kinase, below 1 µM at Pim2 kinase, below 1000 nM in test [1] and below 1 µM at Pim1 kinase.
On to `Nc1ncc(-c2ccc(Cl)cc2)nc1C(=O)Nc1cnccc1N1CCCC(N)C1` (stereo not shown) [Example 353, 3-amino-6-(4-chloro-phenyl)-pyrazine-2-carboxylic acid (3-amino-3,4,5,6-tetrahydro-2H-[1,4′]bipyridinyl-3′-yl)-amide], for which, in the test with HEL 92.1.7 cells, the EC50 was below 1 µM. The IC50 was below 1 µM on Pim3 kinase, below 1 µM at Pim2 kinase, below 1000 nM in test [1] and below 1 µM at Pim1 kinase.
For `Nc1ncc(-c2cn[nH]c2)nc1C(=O)Nc1cnccc1N1CCCC(N)C1` (stereo not shown) [Example 355, 3-amino-6-(1H-pyrazol-4-yl)-pyrazine-2-carboxylic acid (3-amino-3,4,5,6-tetrahydro-2H-[1,4′]bipyridinyl-3′-yl)-amide], the EC50 with HEL 92.1.7 cells was above 10 µM. Also, the IC50 at Pim3 kinase was below 1 µM; on Pim2 kinase it was below 1 µM; in test [1], 1000 to 10000 nM; on Pim1 kinase, below 1 µM.
`Nc1ncc(-c2cccnc2)nc1C(=O)Nc1cnccc1N1CCCC(N)C1` (stereo not shown) [Example 356, 3-amino-6-pyridin-3-yl-pyrazine-2-carboxylic acid (3-amino-3,4,5,6-tetrahydro-2H-[1,4′]bipyridinyl-3′-yl)-amide]: the EC50 with HEL 92.1.7 cells was above 10 µM. The IC50 was below 1 µM at Pim3 kinase, below 1 µM on Pim2 kinase, 1000 to 10000 nM in test [1] and below 1 µM at Pim1 kinase.
With `Nc1ncc(-c2cncnc2)nc1C(=O)Nc1cnccc1N1CCCC(N)C1` (stereo not shown) [Example 357, 3-amino-6-pyrimidin-5-yl-pyrazine-2-carboxylic acid (3-amino-3,4,5,6-tetrahydro-2H-[1,4′]bipyridinyl-3′-yl)-amide], in the test with HEL 92.1.7 cells, the EC50 was in the range of 1 to 5 µM. Further, the IC50 is below 1 µM at Pim3 kinase, below 1 µM on Pim2 kinase, 1000 to 10000 nM in test [1] and below 1 µM on Pim1 kinase.
As for `Nc1ncc(-c2ccccc2F)nc1C(=O)Nc1[nH]c(=O)ncc1N1CCCC(N)C1` (stereo not shown) [Example 401, 3-amino-6-(2-fluoro-phenyl)-pyrazine-2-carboxylic acid [5-(3-amino-piperidin-1-yl)-2-oxo-2,3-dihydro-pyrimidin-4-yl]-amide], the EC50 in the test with HEL 92.1.7 cells lay within 5 to 10 µM. Further, the IC50 at Pim3 kinase was below 1 µM; at Pim2 kinase it was below 1 µM; in test [1], below 1000 nM; on Pim1 kinase, below 1 µM.
On to `Nc1ncc(-c2ccccc2Cl)nc1C(=O)Nc1[nH]c(=O)ncc1N1CCCC(N)C1` (stereo not shown) [Example 402, 3-amino-6-(2-chloro-phenyl)-pyrazine-2-carboxylic acid [5-(3-amino-piperidin-1-yl)-2-oxo-2,3-dihydro-pyrimidin-4-yl]-amide], for which, in the test with HEL 92.1.7 cells, the EC50 lay within 5 to 10 µM. Moreover, the IC50 at Pim3 kinase is below 1 µM; at Pim2 kinase it was below 1 µM; in test [1], 1000 to 10000 nM; at Pim1 kinase it was below 1 µM.
